#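 Five concentrations, 48 hours, 96-well plates. At the TGI there is no net growth.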
# Experiments:
# Experiment in all cases: growth of human tumour cells (NCI), 48 h
# [1] = tested on: COLO 205 colon
# [2] = tested on: OVCAR-5 ovarian
# [3] = tested on: HCT-116 colon
# [4] = tested on: SK-MEL-2 melanoma
# [5] = tested on: OVCAR-4 ovarian
# [6] = tested on: LXFL 529 NSCLC
# [7] = tested on: LOX IMVI melanoma
# [8] = tested on: SNB-75 CNS
# [9] = tested on: UACC-62 melanoma
# [10] = tested on: HCC-2998 colon
# [11] = tested on: OVCAR-3 ovarian
# [12] = tested on: A549 NSCLC
# [13] = tested on: NCI-H226 lung
# [14] = tested on: SW-620 colon
# [15] = tested on: SNB-19 CNS
# [16] = tested on: DLD-1 colon
# [17] = tested on: SF-295 CNS
# [18] = tested on: DMS 273 small cell lung
# [19] = tested on: SK-MEL-28 melanoma
# [20] = tested on: MOLT-4 leukemia
# [21] = tested on: HT29 colon
# [22] = tested on: XF 498 CNS
# [23] = tested on: M14 melanoma
# [24] = tested on: SK-OV-3 ovarian
# [25] = tested on: NCI-H23 lung
# [26] = tested on: OVCAR-8 ovarian
# [27] = tested on: K-562 leukemia
# [28] = tested on: HOP-92 NSCLC
# [29] = tested on: CCRF-CEM leukemia
# [30] = tested on: SF-539 CNS
# [31] = tested on: DMS 114 small cell lung
# [32] = tested on: IGROV1 ovarian
# [33] = tested on: A498 renal
# [34] = tested on: U251 CNS
# [35] = tested on: EKVX NSCLC
# [36] = tested on: TK-10 renal
# [37] = tested on: UACC-257 melanoma
# [38] = tested on: UO-31 renal
# [39] = tested on: SK-MEL-5 melanoma
# [40] = tested on: HOP-62 NSCLC
# [41] = tested on: NCI-H522 lung
# [42] = tested on: RXF-631 renal
# [43] = tested on: SNB-78 CNS
# [44] = tested on: SF-268 CNS
# [45] = tested on: CAKI-1 renal
# [46] = tested on: KM20L2 colon
# [47] = tested on: RPMI-8226 leukemia
# [48] = tested on: HL-60(TB) leukemia
# [49] = tested on: M19-MEL melanoma
# [50] = tested on: MALME-3M melanoma
# [51] = tested on: 786-0 renal
# [52] = tested on: HCT-15 colon
# [53] = tested on: KM12 colon
# [54] = tested on: SN12C renal
# [55] = tested on: HOP-18 NSCLC
# [56] = tested on: NCI-H460 lung
# [57] = tested on: SR leukemia
# [58] = tested on: RXF 393 renal
# [59] = tested on: ACHN renal
structure (smiles),measurement,setting,value
Cc1c2ccncc2c(C)c2c1[nH]c1ccc(OC(C)(C)C)cc12,TGI,[1],3.12 µM
same,TGI,[2],54.9 µM
same,TGI,[3],3.36 µM
same,TGI,[4],3.88 µM
same,TGI,[5],4.21 µM
same,TGI,[6],5.5 µM
same,TGI,[7],7.53 µM
same,TGI,[8],3.73 µM
same,TGI,[9],5.43 µM
same,TGI,[10],3.78 µM
same,TGI,[11],3.42 µM
same,TGI,[12],13.1 µM
same,TGI,[13],14.8 µM
same,TGI,[14],5.1 µM
same,TGI,[15],7.53 µM
same,TGI,[16],10.4 µM
same,TGI,[17],4.87 µM
same,TGI,[18],4.36 µM
same,TGI,[19],3.77 µM
same,TGI,[20],4.66 µM
same,TGI,[21],7.09 µM
same,TGI,[22],3.75 µM
same,TGI,[23],14.9 µM
same,TGI,[24],18.8 µM
same,TGI,[25],24.9 µM
same,TGI,[26],9.75 µM
same,TGI,[27],4.93 µM
same,TGI,[28],25.1 µM
same,TGI,[29],5.77 µM
same,TGI,[30],2.93 µM
same,TGI,[31],4.29 µM
same,TGI,[32],26.8 µM
same,TGI,[33],26.2 µM
same,TGI,[34],10.1 µM
same,TGI,[35],36.2 µM
same,TGI,[36],18.1 µM
same,TGI,[37],4.01 µM
same,TGI,[38],4.3 µM
same,TGI,[39],4.9 µM
same,TGI,[40],9.74 µM
same,TGI,[41],5.81 µM
same,TGI,[42],6.58 µM
same,TGI,[43],6.53 µM
same,TGI,[44],25.5 µM
same,TGI,[45],3.4 µM
same,TGI,[46],11.1 µM
same,TGI,[47],5.49 µM
same,TGI,[48],3.83 µM
same,TGI,[49],5.54 µM
same,TGI,[50],3.31 µM
same,TGI,[51],2.96 µM
COC(=O)C(=O)C(C(=O)C=C(C)C)C(=O)C(=O)Nc1cccc(C(C)=O)c1 (stereo not drawn),TGI,[1],> 100 µM
same,TGI,[2],> 100 µM
same,TGI,[3],> 100 µM
same,TGI,[4],> 100 µM
same,TGI,[5],> 100 µM
same,TGI,[6],> 100 µM
same,TGI,[7],> 100 µM
same,TGI,[8],> 100 µM
same,TGI,[9],> 100 µM
same,TGI,[10],> 100 µM
same,TGI,[11],> 100 µM
same,TGI,[12],> 100 µM
same,TGI,[13],> 100 µM
same,TGI,[52],> 100 µM
same,TGI,[14],> 100 µM
same,TGI,[53],> 100 µM
same,TGI,[54],> 100 µM
same,TGI,[15],> 100 µM
same,TGI,[16],> 100 µM
same,TGI,[55],> 100 µM
same,TGI,[17],> 100 µM
same,TGI,[18],> 100 µM
same,TGI,[19],> 100 µM
same,TGI,[20],> 100 µM
same,TGI,[21],> 100 µM
same,TGI,[22],> 100 µM
same,TGI,[23],> 100 µM
same,TGI,[24],> 100 µM
same,TGI,[25],> 100 µM
same,TGI,[26],> 100 µM
same,TGI,[56],> 100 µM
same,TGI,[27],> 100 µM
same,TGI,[29],> 100 µM
same,TGI,[30],> 100 µM
same,TGI,[31],> 100 µM
same,TGI,[32],> 100 µM
same,TGI,[57],> 100 µM
same,TGI,[33],> 100 µM
same,TGI,[34],> 100 µM
same,TGI,[35],> 100 µM
same,TGI,[36],> 100 µM
same,TGI,[37],> 100 µM
same,TGI,[38],> 100 µM
same,TGI,[39],> 100 µM
same,TGI,[40],> 100 µM
same,TGI,[41],> 100 µM
same,TGI,[42],> 100 µM
same,TGI,[43],> 100 µM
same,TGI,[58],> 100 µM
same,TGI,[44],> 100 µM
same,TGI,[45],> 100 µM
same,TGI,[46],> 100 µM
same,TGI,[59],> 100 µM
same,TGI,[47],> 100 µM
same,TGI,[48],> 100 µM
same,TGI,[49],> 100 µM
same,TGI,[50],> 100 µM
same,TGI,[51],> 100 µM
Clc1ccc(CN2COc3c(cc(Cl)c4cccnc34)C2)cc1,TGI,[1],31.7 µM
same,TGI,[2],8.11 µM
same,TGI,[3],5.49 µM
same,TGI,[4],3.87 µM
same,TGI,[5],8.26 µM
same,TGI,[6],2.71 µM
same,TGI,[7],2.97 µM
same,TGI,[8],11 µM
same,TGI,[9],4.11 µM
same,TGI,[10],12 µM
same,TGI,[11],6.84 µM
same,TGI,[12],6.12 µM
same,TGI,[13],8.67 µM
same,TGI,[52],13.5 µM
same,TGI,[14],11 µM
same,TGI,[53],6.32 µM
same,TGI,[54],15.6 µM
same,TGI,[15],16 µM
same,TGI,[16],13.6 µM
same,TGI,[55],16.4 µM
same,TGI,[17],7.1 µM
same,TGI,[18],3.53 µM
same,TGI,[19],7.38 µM
same,TGI,[20],5.02 µM
same,TGI,[21],24.7 µM
same,TGI,[22],7.24 µM
same,TGI,[23],3.82 µM
same,TGI,[24],13.3 µM
same,TGI,[25],6.8 µM
same,TGI,[26],5.05 µM
same,TGI,[56],9.19 µM
same,TGI,[27],3.74 µM
same,TGI,[28],12.9 µM
same,TGI,[29],4.94 µM
same,TGI,[30],4.92 µM
same,TGI,[31],3.73 µM
same,TGI,[32],8 µM
same,TGI,[57],6.88 µM
same,TGI,[33],24.8 µM
same,TGI,[34],6.45 µM
same,TGI,[35],14.2 µM
same,TGI,[36],13.4 µM
same,TGI,[37],9.13 µM
same,TGI,[38],5.51 µM
same,TGI,[39],8.92 µM
same,TGI,[40],3.35 µM
same,TGI,[41],3.12 µM
same,TGI,[42],23.1 µM
same,TGI,[43],17.9 µM
same,TGI,[58],5.86 µM
same,TGI,[44],12.7 µM
same,TGI,[45],12.6 µM
same,TGI,[46],27.5 µM
same,TGI,[59],8.74 µM
same,TGI,[47],3.42 µM
same,TGI,[48],2.11 µM
same,TGI,[49],6.06 µM
same,TGI,[50],5.74 µM
same,TGI,[51],9.41 µM

# Source: PubChem BioAssay (NCI)
